# From patent US20230085307A1, “PYRIDAZINONE COMPOUND AND HERBICIDE” (NISSAN CHEMICAL CORPORATION, priority 2019, published 2023)
# Columns and labels:
# barnyard grass [1] = assay: Test Example 3: herbicidal effect by foliage application, Wagner pot (Table 18, symbol H); type: in vivo, barnyard grass (Echinochloa crus-galli); conditions: amount of applied herbicide 320 g/ha
# In short: (§1)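 Plants were sown in alluvial soil held under 0.1–0.5 cm standing water and grown 14 days in a greenhouse at 25–30 °C. An emulsifiable formulation, water-diluted to the set dose, was then sprayed onto the foliage, and effects were scored three weeks later using previously defined criteria.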
# blackgrass [2] = assay: Test Example 5: herbicidal effect by foliage application, plastic box (Table 20, symbol J); type: in vivo, blackgrass (Alopecurus myosuroides); conditions: foliage application, 320 g/ha, evaluated three weeks after application
# In short: (§2)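 Post-emergence foliar test in sterilized diluvial soil. Compound applied as water-diluted emulsion at a predetermined rate to 14-day-old plants; evaluation at three weeks.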
# barnyard grass [3] = assay: Test Example 4: herbicidal effect by soil treatment (Table 19, symbol H); type: in vivo, barnyard grass (Echinochloa crus-galli); conditions: amount of applied herbicide 320 g/ha
# In short: (§3)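 Emulsion of test compound, water-diluted to predetermined amount, sprayed on soil after sowing (seed depth ~1.5 cm, sterilized diluvial soil). Greenhouse, 25–30° C. Effect graded at three weeks post-spray.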
# redroot pigweed [4] = assay: Test Example 5: herbicidal effect by foliage application, plastic box (Table 20, symbol N); type: in vivo, redroot pigweed (Amaranthus retroflexus); conditions: foliage application, 320 g/ha, evaluated three weeks after application
# In short: as §2
# wild oat [5] = assay: Test Example 4: herbicidal effect by soil treatment (Table 19, symbol I); type: in vivo, wild oat (Avena fatua); conditions: amount of applied herbicide 320 g/ha
# In short: as §3
# lambsquarters [6] = assay: Test Example 4: herbicidal effect by soil treatment (Table 19, symbol O); type: in vivo, lambsquarters (Chenopodium album); conditions: amount of applied herbicide 320 g/ha
# In short: as §3
# blackgrass [7] = assay: Test Example 4: herbicidal effect by soil treatment (Table 19, symbol J); type: in vivo, blackgrass (Alopecurus myosuroides); conditions: amount of applied herbicide 320 g/ha
# In short: as §3
# southern crabgrass [8] = assay: Test Example 5: herbicidal effect by foliage application, plastic box (Table 20, symbol F); type: in vivo, southern crabgrass (Digitaria ciliaris); conditions: foliage application, 320 g/ha, evaluated three weeks after application
# In short: as §2
# Italian ryegrass [9] = assay: Test Example 4: herbicidal effect by soil treatment (Table 19, symbol K); type: in vivo, Italian ryegrass (Lolium multiflorum); conditions: amount of applied herbicide 320 g/ha
# In short: as §3
# velvetleaf [10] = assay: Test Example 5: herbicidal effect by foliage application, plastic box (Table 20, symbol M); type: in vivo, velvetleaf (Abutilon theophrasti); conditions: foliage application, 320 g/ha, evaluated three weeks after application
# In short: as §2
# wild oat [11] = assay: Test Example 5: herbicidal effect by foliage application, plastic box (Table 20, symbol I); type: in vivo, wild oat (Avena fatua); conditions: foliage application, 320 g/ha, evaluated three weeks after application
# In short: as §2
# windgrass [12] = assay: Test Example 4: herbicidal effect by soil treatment (Table 19, symbol L); type: in vivo, windgrass (Apera spica-venti); conditions: amount of applied herbicide 320 g/ha
# In short: as §3
# rice flat sedge = assay: Test Example 3: herbicidal effect by foliage application, Wagner pot (Table 18, symbol E); type: in vivo, rice flat sedge (Cyperus iria); conditions: amount of applied herbicide 320 g/ha
# In short: as §1
# southern crabgrass [13] = assay: Test Example 4: herbicidal effect by soil treatment (Table 19, symbol F); type: in vivo, southern crabgrass (Digitaria ciliaris); conditions: amount of applied herbicide 320 g/ha
# In short: as §3
# persian speedwell [14] = assay: Test Example 4: herbicidal effect by soil treatment (Table 19, symbol R); type: in vivo, Persian speedwell (Veronica persica); conditions: amount of applied herbicide 320 g/ha
# In short: as §3
# persian speedwell [15] = assay: Test Example 5: herbicidal effect by foliage application, plastic box (Table 20, symbol R); type: in vivo, Persian speedwell (Veronica persica); conditions: foliage application, 320 g/ha, evaluated three weeks after application
# In short: as §2
# chickweed [16] = assay: Test Example 5: herbicidal effect by foliage application, plastic box (Table 20, symbol P); type: in vivo, common chickweed (Stellaria media); conditions: foliage application, 320 g/ha, evaluated three weeks after application
# In short: as §2
# green foxtail [17] = assay: Test Example 5: herbicidal effect by foliage application, plastic box (Table 20, symbol G); type: in vivo, green foxtail (Setaria viridis); conditions: foliage application, 320 g/ha, evaluated three weeks after application
# In short: as §2
# redroot pigweed [18] = assay: Test Example 4: herbicidal effect by soil treatment (Table 19, symbol N); type: in vivo, redroot pigweed (Amaranthus retroflexus); conditions: amount of applied herbicide 320 g/ha
# In short: as §3
# velvetleaf [19] = assay: Test Example 4: herbicidal effect by soil treatment (Table 19, symbol M); type: in vivo, velvetleaf (Abutilon theophrasti); conditions: amount of applied herbicide 320 g/ha
# In short: as §3
# Chinese sprangletop = assay: Test Example 3: herbicidal effect by foliage application, Wagner pot (Table 18, symbol D); type: in vivo, chinese sprangletop (Leptochloa chinensis); conditions: amount of applied herbicide 320 g/ha
# In short: as §1
# chickweed [20] = assay: Test Example 4: herbicidal effect by soil treatment (Table 19, symbol P); type: in vivo, common chickweed (Stellaria media); conditions: amount of applied herbicide 320 g/ha
# In short: as §3
# lambsquarters [21] = assay: Test Example 5: herbicidal effect by foliage application, plastic box (Table 20, symbol O); type: in vivo, lambsquarters (Chenopodium album); conditions: foliage application, 320 g/ha, evaluated three weeks after application
# In short: as §2
# Italian ryegrass [22] = assay: Test Example 5: herbicidal effect by foliage application, plastic box (Table 20, symbol K); type: in vivo, Italian ryegrass (Lolium multiflorum); conditions: foliage application, 320 g/ha, evaluated three weeks after application
# In short: as §2
# windgrass [23] = assay: Test Example 5: herbicidal effect by foliage application, plastic box (Table 20, symbol L); type: in vivo, windgrass (Apera spica-venti); conditions: foliage application, 320 g/ha, evaluated three weeks after application
# In short: as §2
# green foxtail [24] = assay: Test Example 4: herbicidal effect by soil treatment (Table 19, symbol G); type: in vivo, green foxtail (Setaria viridis); conditions: amount of applied herbicide 320 g/ha
# In short: as §3
# barnyard grass [25] = assay: Test Example 5: herbicidal effect by foliage application, plastic box (Table 20, symbol H); type: in vivo, barnyard grass (Echinochloa crus-galli); conditions: foliage application, 320 g/ha, evaluated three weeks after application
# In short: as §2
compound,measurement,setting,value
CCCCOc1cccc(-c2sc3ccc(F)cc3c2-c2c(OC(=O)CCC)c(C)nn(C)c2=O)c1 [2-220],herbicidal effect on H: barnyard grass,barnyard grass [1],5 (Herbicidal rate of 90% or more (almost completely withered))
same,herbicidal effect on J: blackgrass (criteria 0-5),blackgrass [2],0 (Herbicidal rate of 5% or less (almost no effect))
same,"H: barnyard grass, herbicidal effect rating",barnyard grass [3],1 (Herbicidal rate of 5% or more and less than 20%)
same,herbicidal effect on N: redroot pigweed (criteria 0-5),redroot pigweed [4],3 (Herbicidal rate of 40% or more and less than 70%)
same,"I: wild oat, herbicidal effect rating",wild oat [5],0 (Herbicidal rate of 5% or less (almost no effect))
same,"O: lambsquarters, herbicidal effect rating",lambsquarters [6],0 (Herbicidal rate of 5% or less (almost no effect))
same,"J: blackgrass, herbicidal effect rating",blackgrass [7],0 (Herbicidal rate of 5% or less (almost no effect))
same,herbicidal effect on F: southern crabgrass (criteria 0-5),southern crabgrass [8],3 (Herbicidal rate of 40% or more and less than 70%)
same,"K: Italian ryegrass, herbicidal effect rating",Italian ryegrass [9],0 (Herbicidal rate of 5% or less (almost no effect))
same,herbicidal effect on M: velvetleaf (criteria 0-5),velvetleaf [10],1 (Herbicidal rate of 5% or more and less than 20%)
same,herbicidal effect on I: wild oat (criteria 0-5),wild oat [11],0 (Herbicidal rate of 5% or less (almost no effect))
same,"L: windgrass, herbicidal effect rating",windgrass [12],0 (Herbicidal rate of 5% or less (almost no effect))
same,herbicidal effect on E: rice flat sedge,rice flat sedge,3 (Herbicidal rate of 40% or more and less than 70%)
same,"F: southern crabgrass, herbicidal effect rating",southern crabgrass [13],0 (Herbicidal rate of 5% or less (almost no effect))
same,"R: persian speedwell, herbicidal effect rating",persian speedwell [14],0 (Herbicidal rate of 5% or less (almost no effect))
same,herbicidal effect on R: persian speedwell (criteria 0-5),persian speedwell [15],4 (Herbicidal rate of 70% or more and less than 90%)
same,herbicidal effect on P: chickweed (criteria 0-5),chickweed [16],4 (Herbicidal rate of 70% or more and less than 90%)
same,herbicidal effect on G: green foxtail (criteria 0-5),green foxtail [17],3 (Herbicidal rate of 40% or more and less than 70%)
same,"N: redroot pigweed, herbicidal effect rating",redroot pigweed [18],4 (Herbicidal rate of 70% or more and less than 90%)
same,"M: velvetleaf, herbicidal effect rating",velvetleaf [19],0 (Herbicidal rate of 5% or less (almost no effect))
same,herbicidal effect on D: Chinese sprangletop,Chinese sprangletop,3 (Herbicidal rate of 40% or more and less than 70%)
same,"P: chickweed, herbicidal effect rating",chickweed [20],0 (Herbicidal rate of 5% or less (almost no effect))
same,herbicidal effect on O: lambsquarters (criteria 0-5),lambsquarters [21],3 (Herbicidal rate of 40% or more and less than 70%)
same,herbicidal effect on K: Italian ryegrass (criteria 0-5),Italian ryegrass [22],0 (Herbicidal rate of 5% or less (almost no effect))
same,herbicidal effect on L: windgrass (criteria 0-5),windgrass [23],0 (Herbicidal rate of 5% or less (almost no effect))
same,"G: green foxtail, herbicidal effect rating",green foxtail [24],0 (Herbicidal rate of 5% or less (almost no effect))
same,herbicidal effect on H: barnyard grass (criteria 0-5),barnyard grass [25],3 (Herbicidal rate of 40% or more and less than 70%)
